From patent EP0476120B1, “PROCESS FOR PREPARING EQUIMOLAR SALTS OF ASPARTIC ACID AND MAGNESIUM, MAGNESIUM ASPARTATE SALT OBTAINED BY SAID PROCESS AND ITS APPLICATIONS” (LA[…] SPINDLER, priority 1990, dated 1991)
Where “and” joins values, the source holds several entries; their conditions need not be identical. Equal entries are not always repeated. Where two headings read alike, the source gives them in different places.

What was measured:
souris [1] = conditions: mouse; for animaux ne présentant pas de comportement anxiogène (miction, défécation): controls 20 %; for souris présentant une défécation et une miction émotionnelles: controls 85 p. 100
Protocol: (§1) Ces études ont été réalisées chez des souris mâles, de souche NMRI-Han, réparties au hasard en lots de 15 souris (séries traitées) et 20 souris (série contrôle).
Enfin, l'effet à l'égard des manifestations dites émotionnelles est mesuré sur la miction et la défécation au cours des 3 minutes passées dans le cylindre et permet le calcul d'une DA 50 dite "anti-émotionnelle".
(§2) Les doses ont été calculées selon une progression géométrique de base 700 (correspondant au 1/10 de la DL 50) et de raison 2, soit respectivement 175, 350, 700 et 1400 mg.kg⁻¹.
(§3) Les traitements sont réalisés 60 minutes avant le test.
(§4) Il est identique à celui décrit dans l'exemple précédent.
(§5) Les doses ont été calculées selon une progression géométrique de base 700 (correspondant au 1/10 de la DL 50) et de raison 2, soit respectivement 10,95; 21,9; 43,8; 87,5; 175; 350; 700 mg/kg. […] Les derniers traitements ont été réalisés 60 minutes avant le test.

souris [2] = conditions: mouse
Excerpt: as §1
La motilité a été mesurée à l'aide d'un actimètre "type Dews" (Brit. J. Pharmacol. 1953, 8 : 46). Les animaux sont placés un par un dans une enceinte rectangulaire en matière plastique transparente (mesures intérieures : L = 24 cm, l = 15 cm, h = 9,5 cm), couverte par un grillage métallique et traversée par deux faisceaux infra-rouges perpendiculaires situés à 2 cm au-dessus du plancher (médianes de l'enceinte); ces deux faisceaux viennent frapper deux cellules photo-électriques reliées à un compteur d'impulsions déclenché à chaque fois que l'animal coupe un des faisceaux. Les actimètres ont été placés dans une pièce non insonorisée mais en dehors de tout bruit aigu, à une température de l'ordre de 21°C.
L'activité motrice a été mesurée au cours des 5 premières minutes (exploration non anxiogène) puis entre 5 et 15 minutes (activité basale non anxiogène).
as §2, §3, §4, §5

[3] = repeated daily dosing (13 days), 10.95 mg/kg P.O., last dose 60 min before test
[4] = repeated daily dosing (13 days), 21.9 mg/kg P.O., last dose 60 min before test
[5] = repeated daily dosing (13 days), 43.8 mg/kg P.O., last dose 60 min before test, 43.8 mg/kg
[6] = repeated daily dosing (13 days), 43.8 mg/kg P.O., last dose 60 min before test, listed as Mag, 43.8 mg/kg
[7] = repeated daily dosing (13 days), 87.5 mg/kg P.O., last dose 60 min before test
[8] = repeated daily dosing (13 days), 175 mg/kg P.O., last dose 60 min before test
[9] = repeated daily dosing (13 days), 350 mg/kg P.O., last dose 60 min before test, 350 mg/kg
[10] = repeated daily dosing (13 days), 350 mg/kg P.O., last dose 60 min before test, listed as Mag, 350 mg/kg
[11] = repeated daily dosing (13 days), 700 mg/kg P.O., last dose 60 min before test
[12] = single dose 175 mg.kg⁻¹ P.O., 60 min before test
[13] = single dose 350 mg.kg⁻¹ P.O., 60 min before test
[14] = single dose 700 mg.kg⁻¹ P.O., 60 min before test
[15] = single dose 700 mg.kg⁻¹ P.O., 60 min before test, listed as Mag
[16] = single dose 1400 mg.kg⁻¹ P.O., 60 min before test

Substance: α-β-aspartate de magnésium
- DA 50 (enceinte anxiogène, sujets ne présentant pas de comportement anxieux) (souris [1]; repeated administration over 13 days P.O., limits 11,26 - 68,66 mg/kg): 27,8 mg/kg and 28 mg/kg and 27,81 mg/kg
- animaux ne présentant pas de comportement anxiogène (miction, défécation) (souris [1]; repeated dosing (13 days), 175 mg/kg P.O.): 73,3%
- animaux ne présentant pas de comportement anxiogène (miction, défécation) (souris [1]; repeated dosing (13 days), 350 mg/kg P.O.): 60%
- animaux ne présentant pas de comportement anxiogène (miction, défécation) (souris [1]; repeated dosing (13 days), 700 mg/kg P.O.): 66,7%
- animaux ne présentant pas de comportement anxiogène (miction, défécation) (souris [1]; repeated dosing (13 days), 10,95 mg/kg P.O.): 40%
- animaux ne présentant pas de comportement anxiogène (miction, défécation) (souris [1]; repeated dosing (13 days), 21,9 mg/kg P.O.): 40%
- animaux ne présentant pas de comportement anxiogène (miction, défécation) (souris [1]; repeated dosing (13 days), 43,8 mg/kg P.O.): 60%
- animaux ne présentant pas de comportement anxiogène (miction, défécation) (souris [1]; repeated dosing (13 days), 87,5 mg/kg P.O.): 66,7%
- souris présentant une défécation et une miction émotionnelles (souris [1]; single dose 175 mg.kg⁻¹ P.O.): 40%
- souris présentant une défécation et une miction émotionnelles (souris [1]; single dose 350 mg.kg⁻¹ P.O.): 53%
- souris présentant une défécation et une miction émotionnelles (souris [1]; single dose 700 mg.kg⁻¹ P.O.): 27%
- souris présentant une défécation et une miction émotionnelles (souris [1]; single dose 1400 mg.kg⁻¹ P.O.): 73%
- DA 50 "anti-émotionnelle" (souris [1]; single dose P.O., confidence limits (5 p. 100) 160 - 2082 mg.kg⁻¹): 577 mg/kg
- Activité motrice 0-5 minutes, nombre de coupures de faisceaux (moyenne) (souris [2]; [3]): 98
- Activité motrice 0-15 minutes, nombre de coupures de faisceaux (moyenne) (souris [2]; [3]): 221
- Activité motrice 5-15 minutes, nombre de coupures de faisceaux (moyenne) (souris [2]; [3]): 123
- Activité motrice 0-5 minutes, nombre de coupures de faisceaux (moyenne) (souris [2]; [4]): 104
- Activité motrice 0-15 minutes, nombre de coupures de faisceaux (moyenne) (souris [2]; [4]): 237
- Activité motrice 5-15 minutes, nombre de coupures de faisceaux (moyenne) (souris [2]; [4]): 133
- Activité motrice 0-15 minutes, nombre de coupures de faisceaux (moyenne) (souris [2]; repeated daily dosing (13 days), 43.8 mg/kg P.O., last dose 60 min before test): 232
- Activité motrice 0-5 minutes, nombre de coupures de faisceaux (moyenne) (souris [2]; [5]): élévation significative
- Activité motrice 5-15 minutes, nombre de coupures de faisceaux (moyenne) (souris [2]; [5]): élévation significative
- Activité motrice 0-5 minutes, nombre de coupures de faisceaux (moyenne) (souris [2]; [6]): 104
- Activité motrice 5-15 minutes, nombre de coupures de faisceaux (moyenne) (souris [2]; [6]): 128
- Activité motrice 0-5 minutes, nombre de coupures de faisceaux (moyenne) (souris [2]; [7]): 99
- Activité motrice 0-15 minutes, nombre de coupures de faisceaux (moyenne) (souris [2]; [7]): 195
- Activité motrice 5-15 minutes, nombre de coupures de faisceaux (moyenne) (souris [2]; [7]): 96
- Activité motrice 0-5 minutes, nombre de coupures de faisceaux (moyenne) (souris [2]; [8]): 106
- Activité motrice 0-15 minutes, nombre de coupures de faisceaux (moyenne) (souris [2]; [8]): 228
- Activité motrice 5-15 minutes, nombre de coupures de faisceaux (moyenne) (souris [2]; [8]): 122
- Activité motrice 0-15 minutes, nombre de coupures de faisceaux (moyenne) (souris [2]; repeated daily dosing (13 days), 350 mg/kg P.O., last dose 60 min before test): 248
- Activité motrice 0-5 minutes, nombre de coupures de faisceaux (moyenne) (souris [2]; [9]): élévation significative
- Activité motrice 5-15 minutes, nombre de coupures de faisceaux (moyenne) (souris [2]; [9]): élévation significative
- Activité motrice 0-5 minutes, nombre de coupures de faisceaux (moyenne) (souris [2]; [10]): 107
- Activité motrice 5-15 minutes, nombre de coupures de faisceaux (moyenne) (souris [2]; [10]): 141
- Activité motrice 0-5 minutes, nombre de coupures de faisceaux (moyenne) (souris [2]; [11]): 104
- Activité motrice 0-15 minutes, nombre de coupures de faisceaux (moyenne) (souris [2]; [11]): 230
- Activité motrice 5-15 minutes, nombre de coupures de faisceaux (moyenne) (souris [2]; [11]): 126
- Activité motrice 0-5 minutes, nombre de coupures de faisceaux (moyenne) (souris [2]; [12]): 100
- Activité motrice 0-15 minutes, nombre de coupures de faisceaux (moyenne) (souris [2]; [12]): 172
- Activité motrice 5-15 minutes, nombre de coupures de faisceaux (moyenne) (souris [2]; [12]): 72
- Activité motrice 0-5 minutes, nombre de coupures de faisceaux (moyenne) (souris [2]; [13]): 96
- Activité motrice 0-15 minutes, nombre de coupures de faisceaux (moyenne) (souris [2]; [13]): 213
- Activité motrice 5-15 minutes, nombre de coupures de faisceaux (moyenne) (souris [2]; [13]): 117
- Activité motrice 0-5 minutes, nombre de coupures de faisceaux (moyenne) (souris [2]; [14]): augmentation statistiquement significative
- Activité motrice 0-15 minutes, nombre de coupures de faisceaux (moyenne) (souris [2]; [14]): 258
- Activité motrice 5-15 minutes, nombre de coupures de faisceaux (moyenne) (souris [2]; [14]): augmentation statistiquement significative
- Activité motrice 0-5 minutes, nombre de coupures de faisceaux (moyenne) (souris [2]; [15]): 113
- Activité motrice 5-15 minutes, nombre de coupures de faisceaux (moyenne) (souris [2]; [15]): 145
- Activité motrice 0-5 minutes, nombre de coupures de faisceaux (moyenne) (souris [2]; [16]): 110
- Activité motrice 0-15 minutes, nombre de coupures de faisceaux (moyenne) (souris [2]; [16]): 214
- Activité motrice 5-15 minutes, nombre de coupures de faisceaux (moyenne) (souris [2]; [16]): 104
